From patent publication US9062043B2, “Fused tricyclic compounds as serine-threonine protein kinase and PARP modulators” (SENHWA BIOSCIENCES, INC., priority 2006, dated 2015)

Experiments:
[1] = Tumor pharmacokinetic study, 30 mg/kg IV QDx6; type: in vivo, mice
[2] = biological target: recombinant human PIM-1 (Homo sapiens (Human), UniProt P11309); test: PIM-1 assay (cell-free, radiometric); type: biochemical
Experimental: The reactions are incubated for 10 min at 30° C., quenched with 100 ul of 0.75% Phosphoric acid, then transferred to and filtered through a Phosphocellulose filter plate (Millipore). After washing each well 5 times with 0.75% Phosphoric acid, Scintilation fluid (15 ul) is added to each well. The residual radioactivity is measured using a […].

[3] = biological target: protein kinases (Homo sapiens, UniProt O00418); test: Kinase inhibition, percentage of activity at 0.5 μM, standardized radiometric kinase assays; type: biochemical; details: eEF-2K(h);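 note: each kinase tested separately, with activity read as 33P-labelled substrate protein captured on filters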
[4] = biological target: protein kinases (Homo sapiens, UniProt O14965); test: as above; type: biochemical; details: Aurora-A(h)
[5] = biological target: protein kinases (Homo sapiens, UniProt O15111); test: as above; type: biochemical; details: IKKα(h)
[6] = biological target: protein kinases (Homo sapiens, UniProt O43293); test: as above; type: biochemical; details: ZIPK(h)
[7] = biological target: protein kinases (Homo sapiens, UniProt O43318); test: as above; type: biochemical; details: TAK1(h)
[8] = biological target: protein kinases (Homo sapiens, UniProt P04049); test: as above; type: biochemical; details: c-RAF(h)
[9] = biological target: protein kinases (Homo sapiens, UniProt P06241); test: as above; type: biochemical; details: Fyn(h)
[10] = biological target: protein kinases (Homo sapiens, UniProt P07332); test: as above; type: biochemical; details: Fes(h)
[11] = biological target: protein kinases (Homo sapiens, UniProt P07333); test: as above; type: biochemical; details: Fms(h)
[12] = biological target: protein kinases (Homo sapiens, UniProt P07947); test: as above; type: biochemical; details: Yes(h)
[13] = biological target: protein kinases (Homo sapiens, UniProt P08069); test: as above; type: biochemical; details: IGF-1R(h)
[14] = biological target: protein kinases (Homo sapiens, UniProt P08922); test: as above; type: biochemical; details: Ros(h)
[15] = biological target: protein kinases (Homo sapiens, UniProt P09619); test: as above; type: biochemical; details: PDGFRβ(h)
[16] = biological target: protein kinases (Homo sapiens, UniProt P10721, D816H); test: as above; type: biochemical; details: cKit(D816H)(h)
[17] = biological target: protein kinases (Homo sapiens, UniProt P10721, V560G); test: as above; type: biochemical; details: cKit(V560G)(h)
[18] = biological target: protein kinases (Homo sapiens, UniProt P11309); test: as above; type: biochemical; details: Pim-1(h)
[19] = biological target: protein kinases (Homo sapiens, UniProt P11362); test: as above; type: biochemical; details: FGFR1(h)
[20] = biological target: protein kinases (Homo sapiens, UniProt P12931); test: as above; type: biochemical; details: Src(1-530)(h)
[21] = biological target: protein kinases (Homo sapiens, UniProt P16591); test: as above; type: biochemical; details: Fer(h)
[22] = biological target: protein kinases (Homo sapiens, UniProt P17612); test: as above; type: biochemical; details: PKA(h)
[23] = biological target: protein kinases (Homo sapiens, UniProt P23443); test: as above; type: biochemical; details: p70S6K(h)
[24] = biological target: protein kinases (Homo sapiens, UniProt P35968); test: as above; type: biochemical; details: KDR(h)
[25] = biological target: protein kinases (Homo sapiens, UniProt P36888, D835Y); test: as above; type: biochemical; details: Flt3(D835Y)(h)
[26] = biological target: protein kinases (Homo sapiens, UniProt P43403); test: as above; type: biochemical; details: ZAP-70(h)
[27] = biological target: protein kinases (Homo sapiens, UniProt P80192); test: as above; type: biochemical; details: MLK1(h)
[28] = biological target: protein kinases (Homo sapiens, UniProt Q04912); test: as above; type: biochemical; details: Ron(h)
[29] = biological target: protein kinases (Homo sapiens, UniProt Q12866); test: as above; type: biochemical; details: Mer(h)
[30] = biological target: protein kinases (Homo sapiens, UniProt Q13177); test: as above; type: biochemical; details: PAK2(h)
[31] = biological target: protein kinases (Homo sapiens, UniProt Q13464); test: as above; type: biochemical; details: ROCK-I(h)
[32] = biological target: protein kinases (Homo sapiens, UniProt Q13882); test: as above; type: biochemical; details: BRK(h)
[33] = biological target: protein kinases (Homo sapiens, UniProt Q14012); test: as above; type: biochemical; details: CaMKI(h)
[34] = biological target: protein kinases (Homo sapiens, UniProt Q14680); test: as above; type: biochemical; details: MELK(h)
[35] = biological target: protein kinases (Homo sapiens, UniProt Q92630); test: as above; type: biochemical; details: DYRK2(h)
[36] = biological target: protein kinases (Homo sapiens, UniProt Q96SB4); test: as above; type: biochemical; details: SRPK1(h)
[37] = biological target: protein kinases (Homo sapiens, UniProt Q99683); test: as above; type: biochemical; details: ASK1(h)
[38] = biological target: protein kinases (Homo sapiens, UniProt Q9H422); test: as above; type: biochemical; details: HIPK3(h)
[39] = biological target: protein kinases (Homo sapiens, UniProt Q9UEE5); test: as above; type: biochemical; details: DRAK1(h)

protein kinases (Homo sapiens, UniProt P07947), sequence (P07947 2-543 limits assumed): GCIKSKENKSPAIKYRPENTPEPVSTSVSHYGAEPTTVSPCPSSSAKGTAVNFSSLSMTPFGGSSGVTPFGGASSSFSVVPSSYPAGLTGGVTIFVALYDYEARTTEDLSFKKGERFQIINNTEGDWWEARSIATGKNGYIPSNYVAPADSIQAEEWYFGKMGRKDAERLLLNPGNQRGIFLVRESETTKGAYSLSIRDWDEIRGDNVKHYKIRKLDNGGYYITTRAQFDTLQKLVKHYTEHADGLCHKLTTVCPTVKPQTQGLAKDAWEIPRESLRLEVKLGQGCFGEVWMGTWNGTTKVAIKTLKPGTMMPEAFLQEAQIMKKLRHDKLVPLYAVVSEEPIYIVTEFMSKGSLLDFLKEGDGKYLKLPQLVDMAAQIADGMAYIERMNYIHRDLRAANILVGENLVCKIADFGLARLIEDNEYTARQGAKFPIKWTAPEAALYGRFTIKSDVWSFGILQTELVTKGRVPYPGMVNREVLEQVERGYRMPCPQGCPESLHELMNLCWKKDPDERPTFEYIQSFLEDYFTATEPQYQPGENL
protein kinases (Homo sapiens, UniProt P08922), sequence (P08922 28-2347 limits assumed): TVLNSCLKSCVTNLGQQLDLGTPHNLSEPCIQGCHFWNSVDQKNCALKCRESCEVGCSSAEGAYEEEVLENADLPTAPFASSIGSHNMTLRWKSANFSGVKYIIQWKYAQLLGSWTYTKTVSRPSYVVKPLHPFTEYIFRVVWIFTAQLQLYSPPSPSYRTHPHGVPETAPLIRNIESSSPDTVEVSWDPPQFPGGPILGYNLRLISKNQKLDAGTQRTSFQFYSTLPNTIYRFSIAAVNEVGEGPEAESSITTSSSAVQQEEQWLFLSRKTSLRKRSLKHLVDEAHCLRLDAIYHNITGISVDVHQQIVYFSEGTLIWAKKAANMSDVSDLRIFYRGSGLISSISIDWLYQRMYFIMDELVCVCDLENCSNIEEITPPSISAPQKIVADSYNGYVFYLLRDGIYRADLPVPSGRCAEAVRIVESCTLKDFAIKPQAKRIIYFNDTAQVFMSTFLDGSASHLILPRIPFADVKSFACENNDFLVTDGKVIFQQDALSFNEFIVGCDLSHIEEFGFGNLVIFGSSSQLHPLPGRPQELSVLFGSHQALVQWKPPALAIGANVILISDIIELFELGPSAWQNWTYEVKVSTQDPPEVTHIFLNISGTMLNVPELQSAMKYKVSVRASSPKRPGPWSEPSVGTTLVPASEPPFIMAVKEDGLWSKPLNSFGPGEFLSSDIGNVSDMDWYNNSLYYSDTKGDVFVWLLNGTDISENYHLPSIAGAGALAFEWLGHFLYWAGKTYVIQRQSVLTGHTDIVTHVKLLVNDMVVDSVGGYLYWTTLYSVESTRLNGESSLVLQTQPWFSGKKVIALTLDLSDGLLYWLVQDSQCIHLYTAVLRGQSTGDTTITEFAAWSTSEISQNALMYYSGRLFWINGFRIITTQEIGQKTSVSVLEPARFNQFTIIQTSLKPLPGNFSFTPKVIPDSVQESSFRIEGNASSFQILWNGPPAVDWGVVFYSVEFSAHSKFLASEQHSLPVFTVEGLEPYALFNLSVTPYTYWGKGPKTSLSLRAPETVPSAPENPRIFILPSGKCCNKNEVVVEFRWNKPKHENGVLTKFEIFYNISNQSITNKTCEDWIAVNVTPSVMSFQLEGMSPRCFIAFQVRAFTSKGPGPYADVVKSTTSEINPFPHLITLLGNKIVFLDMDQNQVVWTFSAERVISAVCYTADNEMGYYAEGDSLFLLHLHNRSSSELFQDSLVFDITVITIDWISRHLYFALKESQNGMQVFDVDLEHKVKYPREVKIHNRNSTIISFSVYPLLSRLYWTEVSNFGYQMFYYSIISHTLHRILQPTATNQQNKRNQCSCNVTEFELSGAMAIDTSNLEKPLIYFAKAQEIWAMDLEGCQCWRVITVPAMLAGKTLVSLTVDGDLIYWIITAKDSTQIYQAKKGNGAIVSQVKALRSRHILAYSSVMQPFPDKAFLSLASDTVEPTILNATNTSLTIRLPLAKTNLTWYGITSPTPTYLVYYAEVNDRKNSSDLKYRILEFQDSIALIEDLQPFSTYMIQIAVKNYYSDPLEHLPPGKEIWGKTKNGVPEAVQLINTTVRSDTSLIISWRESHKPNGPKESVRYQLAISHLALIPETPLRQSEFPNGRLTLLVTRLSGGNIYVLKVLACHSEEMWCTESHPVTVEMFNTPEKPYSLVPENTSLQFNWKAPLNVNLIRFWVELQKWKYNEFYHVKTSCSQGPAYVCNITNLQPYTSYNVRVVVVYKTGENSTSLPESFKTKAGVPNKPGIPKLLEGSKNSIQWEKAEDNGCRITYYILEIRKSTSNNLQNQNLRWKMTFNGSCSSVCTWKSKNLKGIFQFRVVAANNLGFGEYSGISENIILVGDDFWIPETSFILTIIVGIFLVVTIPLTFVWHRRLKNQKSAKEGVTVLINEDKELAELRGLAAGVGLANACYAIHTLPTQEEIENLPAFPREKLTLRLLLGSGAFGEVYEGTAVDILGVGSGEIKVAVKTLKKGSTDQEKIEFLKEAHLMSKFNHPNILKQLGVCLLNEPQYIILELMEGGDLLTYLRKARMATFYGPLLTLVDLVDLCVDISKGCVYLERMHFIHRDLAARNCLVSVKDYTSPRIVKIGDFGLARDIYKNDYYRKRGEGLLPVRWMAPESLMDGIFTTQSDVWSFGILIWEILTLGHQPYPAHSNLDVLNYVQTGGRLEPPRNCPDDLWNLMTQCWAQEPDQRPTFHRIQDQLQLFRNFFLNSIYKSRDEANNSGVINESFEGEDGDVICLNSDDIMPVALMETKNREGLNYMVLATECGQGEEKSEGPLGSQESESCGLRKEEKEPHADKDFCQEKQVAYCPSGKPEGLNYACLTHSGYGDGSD
recombinant human PIM-1, sequence (P11309 whole entry): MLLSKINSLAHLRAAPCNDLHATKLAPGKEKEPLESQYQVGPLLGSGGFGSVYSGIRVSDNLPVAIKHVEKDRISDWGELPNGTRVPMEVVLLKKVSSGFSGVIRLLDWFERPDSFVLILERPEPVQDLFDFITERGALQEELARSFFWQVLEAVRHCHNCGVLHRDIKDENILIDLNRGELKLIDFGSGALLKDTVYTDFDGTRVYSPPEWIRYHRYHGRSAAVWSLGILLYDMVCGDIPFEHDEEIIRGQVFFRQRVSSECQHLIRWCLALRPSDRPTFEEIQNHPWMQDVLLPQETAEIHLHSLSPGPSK
protein kinases (Homo sapiens, UniProt P10721, D816H), sequence (P10721 26-976 D816H limits assumed): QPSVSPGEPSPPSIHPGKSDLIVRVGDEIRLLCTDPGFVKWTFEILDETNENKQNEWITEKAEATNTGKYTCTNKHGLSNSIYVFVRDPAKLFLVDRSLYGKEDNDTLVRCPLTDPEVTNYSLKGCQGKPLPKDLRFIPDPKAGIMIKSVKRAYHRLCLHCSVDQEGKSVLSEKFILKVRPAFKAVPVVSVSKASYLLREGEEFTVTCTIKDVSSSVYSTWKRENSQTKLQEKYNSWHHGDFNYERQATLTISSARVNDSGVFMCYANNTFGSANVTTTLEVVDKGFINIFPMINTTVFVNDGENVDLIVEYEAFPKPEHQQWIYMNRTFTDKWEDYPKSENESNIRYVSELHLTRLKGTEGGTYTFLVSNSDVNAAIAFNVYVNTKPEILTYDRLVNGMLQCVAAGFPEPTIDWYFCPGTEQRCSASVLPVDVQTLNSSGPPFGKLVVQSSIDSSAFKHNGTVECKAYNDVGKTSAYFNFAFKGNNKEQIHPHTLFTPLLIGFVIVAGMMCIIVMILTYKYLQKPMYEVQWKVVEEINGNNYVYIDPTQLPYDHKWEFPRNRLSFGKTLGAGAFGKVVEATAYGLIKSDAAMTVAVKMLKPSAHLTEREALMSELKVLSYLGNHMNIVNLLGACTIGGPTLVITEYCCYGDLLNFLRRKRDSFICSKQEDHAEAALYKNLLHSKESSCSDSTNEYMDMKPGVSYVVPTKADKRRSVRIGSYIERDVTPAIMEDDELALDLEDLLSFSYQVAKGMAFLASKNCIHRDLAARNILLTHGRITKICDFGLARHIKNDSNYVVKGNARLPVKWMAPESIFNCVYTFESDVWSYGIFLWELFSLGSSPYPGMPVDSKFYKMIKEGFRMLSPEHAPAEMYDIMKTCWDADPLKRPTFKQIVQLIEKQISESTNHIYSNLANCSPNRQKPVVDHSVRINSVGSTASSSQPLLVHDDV
protein kinases (Homo sapiens, UniProt P12931), sequence (P12931 2-536 limits assumed): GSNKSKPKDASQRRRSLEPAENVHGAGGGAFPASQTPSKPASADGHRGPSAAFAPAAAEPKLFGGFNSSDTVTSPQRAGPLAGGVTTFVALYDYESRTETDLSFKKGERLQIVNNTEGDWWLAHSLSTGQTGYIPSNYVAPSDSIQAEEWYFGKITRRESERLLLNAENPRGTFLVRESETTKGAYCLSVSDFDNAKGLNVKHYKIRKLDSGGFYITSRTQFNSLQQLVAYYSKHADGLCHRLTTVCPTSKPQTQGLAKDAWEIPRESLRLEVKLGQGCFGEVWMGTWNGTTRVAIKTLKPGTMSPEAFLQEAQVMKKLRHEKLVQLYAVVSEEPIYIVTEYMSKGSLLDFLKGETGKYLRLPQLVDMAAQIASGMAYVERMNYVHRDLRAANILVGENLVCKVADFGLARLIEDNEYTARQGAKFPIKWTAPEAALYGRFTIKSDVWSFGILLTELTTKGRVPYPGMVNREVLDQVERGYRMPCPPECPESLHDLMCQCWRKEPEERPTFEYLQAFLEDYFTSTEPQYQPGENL
protein kinases (Homo sapiens, UniProt P10721, V560G), sequence (P10721 26-976 V560G limits assumed): as the sequence (P10721 26-976 D816H limits assumed) above, with V535G, H791D counted along it

For `C#Cc1cccc(Nc2nc3cc(C(=O)O)ccc3c3cncnc23)c1` [compound A2], the “Half life change on repeated dosing” value [1] was “about doubles”, the “Minimum concentration increase after six days” value [1] was 4-5 times higher and the “Time to steady state” value [1] was “about three days”. The IC50 [2] was 189 nM, the activity at 0.5 µM [3] was 106% and the activity at 0.5 µM [4] was 94%. For the same compound, the activity at 0.5 µM [5] was 101%, the activity at 0.5 µM [6] was 12% and the activity at 0.5 µM [7] was 101%. For the same compound, the activity at 0.5 µM [8] was 69%, the activity at 0.5 µM [9] was 114% and the activity at 0.5 µM [10] was 139%. It also gave an activity at 0.5 µM [11] of 174%, an activity at 0.5 µM [12] of 109% and an activity at 0.5 µM [13] of 73%. The activity at 0.5 µM [14] was 110%, the activity at 0.5 µM [15] was 110% and the activity at 0.5 µM [16] was 101%. It also gave an activity at 0.5 µM [17] of 111%, an activity at 0.5 µM [18] of 27% and an activity at 0.5 µM [19] of 103%. It also gave an activity at 0.5 µM [20] of 101%, an activity at 0.5 µM [21] of 103% and an activity at 0.5 µM [22] of 90%. The activity at 0.5 µM [23] was 80%, the activity at 0.5 µM [24] was 67% and the activity at 0.5 µM [25] was 17%. The activity at 0.5 µM [26] was 118%, the activity at 0.5 µM [27] was 80% and the activity at 0.5 µM [28] was 106%. For the same compound, the activity at 0.5 µM [29] was 46%, the activity at 0.5 µM [30] was 112% and the activity at 0.5 µM [31] was 97%. For the same compound, the activity at 0.5 µM [32] was 110%, the activity at 0.5 µM [33] was 104% and the activity at 0.5 µM [34] was 49%. For the same compound, the activity at 0.5 µM [35] was 50%, the activity at 0.5 µM [36] was 66% and the activity at 0.5 µM [37] was 116%. The activity at 0.5 µM [38] was 10% and the activity at 0.5 µM [39] was 62%.
